Results: US12428415B2, “Matriptase 2 inhibitors and uses thereof” (Disc Medicine, Inc., priority 2018, dated 2025)

These compounds were tested against T1, Human Recombinant Matriptase 2 (Homo sapiens, UniProt Q8IU80) (assay: Matriptase 2 fluorescence based inhibition assay, Method A (100 mM TRIS pH 9, 1 mg/mL BSA)). Details: 1 uM compound; Assay Used = A; read-out: Mar-2 % inhibition at 1 uM.
T1 construct: purchased Enzo Life Sciences (an in-house preparation was also used) ALX-201-752-1
T1 sequence (Q8IU80 1-811): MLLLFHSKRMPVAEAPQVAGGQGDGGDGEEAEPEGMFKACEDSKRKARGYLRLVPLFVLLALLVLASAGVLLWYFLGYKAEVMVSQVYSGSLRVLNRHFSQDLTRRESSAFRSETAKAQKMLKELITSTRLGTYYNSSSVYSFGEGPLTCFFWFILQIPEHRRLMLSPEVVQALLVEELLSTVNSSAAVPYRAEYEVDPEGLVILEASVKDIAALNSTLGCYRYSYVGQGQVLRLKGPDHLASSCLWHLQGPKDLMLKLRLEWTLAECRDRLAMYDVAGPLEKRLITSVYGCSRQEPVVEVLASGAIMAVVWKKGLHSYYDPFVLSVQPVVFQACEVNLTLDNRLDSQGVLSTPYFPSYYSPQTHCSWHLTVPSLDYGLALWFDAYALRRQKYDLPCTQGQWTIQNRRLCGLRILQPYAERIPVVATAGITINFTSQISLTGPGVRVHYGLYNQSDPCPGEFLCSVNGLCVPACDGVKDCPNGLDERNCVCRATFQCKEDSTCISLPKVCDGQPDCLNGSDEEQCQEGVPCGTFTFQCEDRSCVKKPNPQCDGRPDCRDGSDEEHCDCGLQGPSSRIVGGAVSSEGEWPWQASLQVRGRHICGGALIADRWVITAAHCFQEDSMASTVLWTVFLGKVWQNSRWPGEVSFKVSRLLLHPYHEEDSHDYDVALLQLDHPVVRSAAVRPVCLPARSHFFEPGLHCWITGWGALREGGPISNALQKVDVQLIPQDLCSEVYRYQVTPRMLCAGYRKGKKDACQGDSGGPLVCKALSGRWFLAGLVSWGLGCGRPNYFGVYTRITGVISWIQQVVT
Assay type: biochemical
In short: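 Enzyme (7 nM commercial or 15 nM in-house) preincubated 30 min with compound in 100 mM TRIS pH 9, 1 mg/mL BSA, 1% DMSO at 25° C. Boc-Gln-Ala-Arg-AMC substrate at 100 μM; fluorescence (Ex 360/Em 480 nm) read 60 min later. Screened at 1 and 10 μM; IC50 from variable-slope sigmoidal fit.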

Row | inhibition at 1 µM [%] | Compound
1 | 0 to 25 | N/C(=N\O)c1ccc2cc(C(=O)N[C@H]3CC[C@H](N)CC3)n(Cc3ccc4ccccc4c3)c2c1 [Compound I-399]

Same assay, conditions: 1 uM; Assay Used A; read-out: Mar-2 % inhibition at 1 uM

Row | inhibition at 1 µM [%] | Compound
2 | 0 to 25 | N=C(N)c1ccc2cc(C(=O)N[C@@H]3CC=CCC3)n(Cc3ccc(C(N)=O)cc3)c2c1 [Compound I-189]
3 | 0 to 25 | C[C@H](NC(=O)c1cc2ccc(C(=N)N)cc2n1Cc1ccc(C(N)=O)cc1)c1ccc(F)c(F)c1 [Compound I-94]
4 | 25 to 50 | N=C(N)c1ccc2cc(C(=O)NC3CCN(CCCN)CC3)n(Cc3ccc(C(F)(F)F)cc3)c2c1 [Compound I-6, N-(1-(3-Aminopropyl)piperidin-4-yl)-6-carbamimidoyl-1-(4-(trifluoromethyl)benzyl)-1H indole-2-carboxamide]
5 | 25 to 50 | N=C(N)c1ccc2cc(C(=O)N[C@H]3CC[C@H](N)CC3)n(Cc3ccc(C(=O)O)cc3)c2c1 [Compound I-20, 4-((2-(((1r,4r)-4-aminocyclohexyl)carbamoyl)-6-carbamimidoyl-1H-indol-1-yl)methyl)benzoic Acid]
6 | 0 to 25 | N=C(N)c1ccc2cc(C(=O)Nc3cccc(-c4nccs4)c3)n(Cc3ccc(C(N)=O)cc3)c2c1 [Compound I-144]
7 | 25 to 50 | N=C(N)c1ccc2cc(C(=O)Nc3cccc(-n4ccccc4=O)c3)n(Cc3ccc(C(N)=O)cc3)c2c1 [Compound I-153]
8 | 0 to 25 | N=C(N)c1ccc2cc(C(=O)Nc3ccc(C(=O)N4CCCC4)cc3)n(Cc3ccc(C(N)=O)cc3)c2c1 [Compound I-78]
9 | 0 to 25 | N=C(N)c1ccc2cc(C(=O)Nc3ccc(N4CCCCC4)cc3)n(Cc3ccc(C(N)=O)cc3)c2c1 [Compound I-102]

Further lines, the compound ahead of its results:

Row | Compound | inhibition at 1 µM [%]
10 | C[C@H](NC(=O)c1cc2ccc(C(=N)N)cc2n1Cc1ccc(C(N)=O)cc1)c1cccc(F)c1 [Compound I-95] | 0 to 25
11 | CCOC(=O)NC(=N)c1ccc2cc(C(=O)Nc3ccc(N4CCCC4)cc3)n(Cc3ccc(C(N)=O)cc3)c2c1 [Compound I-119] | 0 to 25
12 | N=C(N)c1ccc2cc(C(=O)NC3CCC(F)(F)CC3)n(CCS(=O)(=O)c3ccccc3)c2c1 [Compound I-48] | 25 to 50
13 | N=C(N)c1ccc2cc(C(=O)N[C@@H]3CC=CCC3)n(CCS(=O)(=O)c3ccccc3)c2c1 [Compound I-47] | 0 to 25
14 | N=C(N)c1ccc2cc(C(=O)NCC3CCCCC3)n(Cc3ccc(OC(F)(F)F)cc3)c2c1 [Compound I-12] | 0 to 25
15 | N=C(N)c1ccc2cc(C(=O)Nc3cc(F)c(F)c(F)c3)n(Cc3ccc(C(N)=O)cc3)c2c1 [Compound I-89] | 0 to 25
16 | C#CCOc1cccc(NC(=O)c2cc3ccc(C(=N)N)cc3n2Cc2ccc(C(N)=O)cc2)c1 [Compound I-146] | 25 to 50
17 | N=C(N)c1ccc2cc(C(=O)Nc3cccc(N4CCCC4)n3)n(Cc3ccc(C(N)=O)cc3)c2c1 [Compound I-180] | 25 to 50
18 | N=C(N)c1ccc2cc(C(=O)Nc3ccc(Cl)cc3)n(Cc3ccc(C(N)=O)cc3)c2c1 [Compound I-84] | 0 to 25
19 | CN(C)CC(=O)O/N=C(\N)c1ccc2cc(C(=O)Nc3cccc(N4CCCC4)c3)n(Cc3ccc(C(N)=O)cc3)c2c1 [Compound I-135, 1-(4-Carbamoylbenzyl)-6-(N′-(2-(dimethylamino)acetoxy)carbamimidoyl)-N-(3-(pyrrolidin-1-yl)phenyl)-1H-indole-2-carboxamide] | 0 to 25

Same assay, conditions: at 1 uM; Assay Used = A; read-out: Mar-2 % inhibition at 1 uM

Row | inhibition at 1 µM [%] | Compound
20 | 0 to 25 | NC(=O)c1ccc(Cn2c(C(=O)Nc3cccc(N4CCCC4)c3)cc3ccc(/C(N)=N/O)cc32)cc1 [Compound I-267, 1-(4-Carbamoylbenzyl)-6-(N′-hydroxycarbamimidoyl)-N-(3-(pyrrolidin-1-yl)phenyl)-1H-indole-2-carboxamide]
21 | 0 to 25 | N=C(N)c1ccc2cc(C(=O)N3CCC(F)(F)C3)n(Cc3ccc(C(N)=O)cc3)c2c1 [Compound I-331]
22 | 25 to 50 | N=C(N)c1ccc2cc(C(=O)N[C@H]3CC[C@H](N)CC3)n(Cc3cccc(N)c3)c2c1 [Compound I-256, 1-(3-Aminobenzyl)-N-((1r,4r)-4-aminocyclohexyl)-6-carbamimidoyl-1H-indole-2-carboxamide]
23 | 0 to 25 | N=C(N)c1ccc2cc(C(=O)N3CCC(CF)CC3)n(Cc3ccc(NC(=O)CCN)cc3)c2c1 [Compound I-377]
24 | 0 to 25 | N=C(N)c1ccc2cc(C(=O)N3CCc4ccccc4C3)n(Cc3ccc(NC(=O)CCN)cc3)c2c1 [Compound I-378]
25 | 0 to 25 | CC(C)CCn1c(C(=O)N2CC[C@H](F)C2)cc2ccc(C(=N)N)cc21 [Compound I-272]
26 | 0 to 25 | CC(C)c1ccc(Cn2c(C(=O)N3CCC(F)(F)C3)cc3ccc(C(=N)N)cc32)cc1 [Compound I-294]
27 | 0 to 25 | CC1CCC(NC(=O)c2cc3ccc(C(=N)N)cc3n2Cc2ccc(C(=O)NCCN)cc2)CC1 (stereo not shown) [Compound I-224, 1-(4-((2-Aminoethyl)carbamoyl)benzyl)-6-carbamimidoyl-N-(4-methylcyclohexyl)-1H-indole-2-carboxamide]
28 | 0 to 25 | CC1CCC(NC(=O)c2cc3ccc(C(=N)N)cc3n2Cc2ccc(C(=O)NCCO)cc2)CC1 (stereo not shown) [Compound I-223, 6-Carbamimidoyl-1-(4-((2-hydroxyethyl)carbamoyl)benzyl)-N-(4-methylcyclohexyl)-1H-indole-2-carboxamide]
29 | 0 to 25 | N=C(N)c1ccc2cc(C(=O)N3CCC(CCN)CC3)n(Cc3ccc(Oc4ccc(F)cc4)cc3)c2c1 [Compound I-316]
30 | 0 to 25 | N=C(N)c1ccc2cc(C(=O)N3CCC(F)C3)n(Cc3cccc(C(N)=O)c3)c2c1 (stereo not shown) [Compound I-323, 3-((6-Carbamimidoyl-2-(3-fluoropyrrolidine-1-carbonyl)-1H-indol-1-yl)methyl)benzamide]

The remaining lines, values behind:

Row | Compound | inhibition at 1 µM [%]
31 | N=C(N)c1ccc2cc(C(=O)N3CCC(CCO)CC3)n(Cc3ccc(C(F)(F)F)cc3)c2c1 [Compound I-280] | 0 to 25
32 | N=C(N)c1ccc2cc(C(=O)NCC3CCCCC3)n(Cc3ccc(C(=O)NCCO)cc3)c2c1 [Compound I-222, 6-Carbamimidoyl-N-(cyclohexylmethyl)-1-(4-((2-hydroxyethyl)carbamoyl)benzyl)-1H-indole-2-carboxamide] | 0 to 25
33 | N=C(N)c1ccc2cc(C(=O)N3CCC(CCN)CC3)n(Cc3cccc(Oc4ccccc4)c3)c2c1 [Compound I-321] | 25 to 50
34 | N=C(N)c1ccc2cc(C(=O)NC34CC5CC(CC(O)(C5)C3)C4)n(Cc3ccc(C(N)=O)cc3)c2c1 [Compound I-197] | 0 to 25
35 | N=C(N)c1ccc2cc(C(=O)NC3CCC(F)(F)CC3)n(Cc3cccc(C(N)=O)c3)c2c1 [Compound I-230, 6-Carbamimidoyl-1-(3-carbamoylbenzyl)-N-(4-difluorocyclohexyl)-1H-indole-2-carboxamide] | 0 to 25
36 | CC(C)CCn1c(C(=O)N2CCC(F)(F)C2)cc2ccc(C(=N)N)cc21 [Compound I-273] | 0 to 25
37 | N=C(N)c1ccc2cc(C(=O)N3CCC(F)CC3)n(Cc3ccc(OC(F)(F)F)cc3)c2c1 [Compound I-289] | 0 to 25
38 | N=C(N)c1ccc2cc(C(=O)N3CCCC4CCCCC43)n(CCS(=O)(=O)c3ccccc3)c2c1 (stereo not shown) [Compound I-338] | 0 to 25
39 | N=C(N)c1ccc2cc(C(=O)N[C@H]3c4ccccc4C[C@H]3O)n(Cc3ccc(C(N)=O)cc3)c2c1 [Compound I-204] | 0 to 25
40 | N=C(N)c1ccc2cc(C(=O)N3CCCC(F)(F)C3)n(Cc3ccc(Oc4ccccc4)cc3)c2c1 [Compound I-315] | 0 to 25
41 | N=C(N)c1ccc2cc(C(=O)N3CCC(CCN)CC3)n(Cc3ccc(NC(=O)CCCN)cc3)c2c1 [Compound I-372] | 25 to 50
42 | N=C(N)c1ccc2c(Cl)c(C(=O)N3CCC(F)CC3)n(Cc3ccc(-c4ccccc4)cc3)c2c1 [Compound I-353, 1-([1,1′-Biphenyl]-4-ylmethyl)-3-chloro-2-(4-fluoropiperidine-1-carbonyl)-1H-indole-6-carboximidamide] | 0 to 25
43 | CC(C)CCn1c(C(=O)N2CCC(F)CC2)cc2ccc(C(=N)N)cc21 [Compound I-270, 2-(4-Fluoropiperidine-1-carbonyl)-1-isopentyl-1H-indole-6-carboximidamide] | 0 to 25
44 | N=C(N)c1ccc2c(N)c(C(=O)N3CCC4CCCCC4C3)n(CCS(=O)(=O)c3ccccc3)c2c1 (stereo not shown) [Compound I-351] | 0 to 25
45 | N=C(N)c1ccc2cc(C(=O)N3CCC(F)(F)CC3)n(Cc3cccc(NC(=O)CCN)c3)c2c1 [Compound I-367] | 0 to 25
46 | N=C(N)c1ccc2cc(C(=O)N3CCC(CCN)CC3)n(Cc3ccc(C(F)(F)F)cc3)c2c1 [Compound I-278] | 0 to 25
